“Also recorded” adds a separate entry of the source. Like-named read-outs stand apart in the source and are kept apart here.
Tests used:
[1] = Phase 1 open-label one-sequence crossover drug-interaction study: plasma pharmacokinetics of NBI-98854 and metabolites with and without rifampin; type: in vivo, human; settings: for half-life: read-out: Mean t1/2 (converted); for AUC(0-t) / Tlag / t1/2: Mean (SD)
Protocol: Subjects received a single dose of 80 mg valbenazine tosylate on Days 1 and 11 between 0800 and 1000 hours. In addition, subjects received 600 mg rifampin (300 mg×2 capsules) once daily on Days 5 (after collection of the 96-hour PK sample) through 14 between 0830 and 1030 hours. Subjects were required to fast overnight before receiving the study drugs (valbenazine tosylate and rifampin). Subjects were discharged from the study center on Day 15 (final study day or upon early termination) after all safety evaluations and study assessments had been completed.
Safety was assessed throughout the study.
NBI-98854 40 mg capsules were administered orally. The dose of NBI-98854 was based on ditosylate salt (dose expressed as free base). Subjects received a single dose of NBI-98854 80 mg (as two 40 mg capsules) twice during the study, on Days 1 and 11.
Rifampin 300 mg capsules were administered orally. Subjects received a single dose of rifampin 600 mg (as two 300 mg capsules) on Days 5 (after collection of the 96 hour NBI-98854 PK sample) through 14 between 0830 and 1030 hours.
The following plasma PK parameters were calculated only for NBI-98854: • Apparent systemic clearance after oral administration (CL/F) • Apparent volume of distribution during the terminal phase after oral administration (Vz/F)
The last significant figure was rounded up if the digit to the right of it was >5, and was rounded down if the digit to the right of it was […].
The last significant figure was rounded up if the digit to the right of it was ≥5, and was rounded down if the digit to the right of it was ≤4.
An analysis of variance (ANOVA) model was used to compare AUC0-∞ and Cmax for NBI-98854 administered with rifampin (“test”) versus AUC0-∞ and Cmax for NBI-98854 alone (“reference”). The PK parameters for metabolites of NBI-98854 and rifampin were also evaluated. Safety data were summarized using descriptive statistics.

human VMAT1 transporter = biological target: T1, human VMAT1 transporter (Homo sapiens, UniProt P54219); test: Uptake in cells expressing VMAT1; type: cell-based; settings: TBZ, VBZ and metabolites at concentrations up to 10 μM, listed as R,R,R-DHTBZ
T1 construct: expressed in transfected cells
T1 sequence (P54219 1-525): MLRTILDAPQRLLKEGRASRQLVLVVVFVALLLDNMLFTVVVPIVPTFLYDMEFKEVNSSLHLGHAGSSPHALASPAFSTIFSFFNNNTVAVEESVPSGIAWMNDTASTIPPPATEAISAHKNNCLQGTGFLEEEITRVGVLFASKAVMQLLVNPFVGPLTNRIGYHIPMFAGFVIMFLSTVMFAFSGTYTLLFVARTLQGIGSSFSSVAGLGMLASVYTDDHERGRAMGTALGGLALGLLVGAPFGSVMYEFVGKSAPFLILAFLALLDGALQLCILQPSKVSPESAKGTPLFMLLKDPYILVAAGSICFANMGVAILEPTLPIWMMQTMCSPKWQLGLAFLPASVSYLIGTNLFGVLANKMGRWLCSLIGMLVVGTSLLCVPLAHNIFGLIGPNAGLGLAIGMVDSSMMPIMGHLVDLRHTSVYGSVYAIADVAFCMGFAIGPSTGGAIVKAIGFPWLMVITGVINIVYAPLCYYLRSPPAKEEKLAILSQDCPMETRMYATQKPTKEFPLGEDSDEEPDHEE

[2] = Ptosis, in vivo surrogate measure of pharmacological effect
[3] = Prolactin release, in vivo surrogate for dopaminergic modulation
CYP enzymes = settings: human
Serotonin 5-HT7 = Serotonin 5-HT7 (Homo sapiens, UniProt P34969); test: Cerep screen, Serotonin 5-HT7; settings: 1 or 10 μM final concentration; n=2
Serotonin 5-HT1A = biological target: T2, Serotonin 5-HT1A (Homo sapiens, UniProt P08908); test: Cerep screen, Serotonin 5-HT1A; settings: 1 or 10 μM final concentration; n=2
T2 sequence (P08908 1-422): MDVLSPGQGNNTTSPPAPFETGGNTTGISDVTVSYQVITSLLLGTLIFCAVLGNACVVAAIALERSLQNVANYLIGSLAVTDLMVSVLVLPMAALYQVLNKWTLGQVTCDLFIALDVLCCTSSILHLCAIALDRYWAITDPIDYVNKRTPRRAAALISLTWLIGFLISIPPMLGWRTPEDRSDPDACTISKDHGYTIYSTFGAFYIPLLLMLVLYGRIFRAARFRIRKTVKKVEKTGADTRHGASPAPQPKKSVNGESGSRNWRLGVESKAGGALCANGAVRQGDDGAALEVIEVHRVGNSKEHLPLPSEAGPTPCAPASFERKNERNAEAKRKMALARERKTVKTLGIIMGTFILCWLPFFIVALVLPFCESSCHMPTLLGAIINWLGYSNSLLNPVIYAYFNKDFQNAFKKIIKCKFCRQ

[4] = system: more than 80 targets (GPCRs, cell-surface monoamine transporters, ion channels including HERG); test: Cerep multi-target activity screen; settings: receptors, monoamine transporters, and ion channels
[5] = both sexes, human, plasma, oral, 80 mg
[6] = plasma metabolite NBI-98782, NBI-98854 80 mg + rifampin 600 mg, N = 11
[7] = plasma metabolite NBI-98782, NBI-98854 80 mg alone, N = 11

Sequence of Serotonin 5-HT7 (P34969 whole entry): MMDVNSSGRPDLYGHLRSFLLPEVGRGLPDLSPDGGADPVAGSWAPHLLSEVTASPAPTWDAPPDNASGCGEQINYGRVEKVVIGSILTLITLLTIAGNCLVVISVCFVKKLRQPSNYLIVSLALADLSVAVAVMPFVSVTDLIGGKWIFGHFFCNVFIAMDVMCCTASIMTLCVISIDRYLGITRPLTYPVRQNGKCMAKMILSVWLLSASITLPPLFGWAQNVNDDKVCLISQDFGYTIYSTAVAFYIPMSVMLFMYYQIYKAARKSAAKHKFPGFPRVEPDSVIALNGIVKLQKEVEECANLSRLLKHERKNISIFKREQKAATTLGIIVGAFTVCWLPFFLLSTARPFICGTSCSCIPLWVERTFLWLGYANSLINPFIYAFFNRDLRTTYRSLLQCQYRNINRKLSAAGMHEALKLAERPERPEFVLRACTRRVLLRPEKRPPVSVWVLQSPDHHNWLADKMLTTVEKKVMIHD

COc1cc2c(cc1OC)[C@H]1C[C@@H](O)[C@H](CC(C)C)CN1CC2 [NBI-98782, (2R, 3R,11bR)-3-isobutyl-9,10-dimethoxy-1,3,4,6,7,11b-hexahydro-2H-pyrido[2,1-a]isoquinolin-2-ol]
half-life ([1]; both sexes, human, oral, 80 mg, plasma analyte, NBI-98854 alone): 19 h | Tmax ([1]; both sexes, human, oral, 80 mg, plasma analyte, NBI-98854 alone, read-out: Median tmax): 4 h | half-life ([1]; both sexes, human, oral, plasma analyte, NBI-98854 administered with rifampin): 12 h | Tmax ([1]; both sexes, human, oral, plasma analyte, NBI-98854 plus rifampin, read-out: Median tmax): 3 h | AUC(0-inf) [1, 5]: 689 ng·h/mL | Cmax [1, 5]: 21.5 ng/mL | MRT [1, 5]: 28 h | AUC(0-t) ([1]; both sexes, human, plasma, oral, 80 mg, plasma metabolite NBI-98782, NBI-98854 80 mg alone, N = 11, read-out: AUC0-24): 364 ng·h/mL | AUC(0-t) ([1]; both sexes, human, plasma, oral, 80 mg, plasma metabolite NBI-98782, NBI-98854 80 mg alone, N = 11, read-out: AUC0-tlast): 665 ng·h/mL | AUC(0-t) ([1]; both sexes, human, plasma, oral, plasma metabolite NBI-98782, NBI-98854 80 mg + rifampin 600 mg, N = 11, read-out: AUC0-24): 115 ng·h/mL | AUC(0-t) ([1]; both sexes, human, plasma, oral, plasma metabolite NBI-98782, NBI-98854 80 mg + rifampin 600 mg, N = 11, read-out: AUC0-tlast): 153 ng·h/mL | Tlag [1, 6]: 0.23 (0.075) hr | t1/2 [1, 6]: 12 (1.7) hr | Tmax ([1]; plasma metabolite NBI-98782, NBI-98854 80 mg + rifampin 600 mg, N = 11, Median (min, max)): 3.0 (0.50, 4.0) hr | Tlag [1, 7]: 0.25 (0.16) hr | t1/2 [1, 7]: 19 (2.3) hr | Tmax ([1]; plasma metabolite NBI-98782, NBI-98854 80 mg alone, N = 11, Median (min, max)): 4.0 (0.52, 18) hr | inhibition of uptake through VMAT1 (human VMAT1 transporter): no significant inhibitory activity; also recorded: no significant effect | induction of ptosis [2]: induced ptosis in an equivalent manner | increase in serum prolactin levels [3]: induced a similar increase in serum prolactin levels as TBZ | enzymes involved in oxidative metabolism (CYP enzymes): mediated primarily by CYP2D6 with contribution from CYP3A4/5 | percent of control specific binding, Serotonin 5-HT7 (Serotonin 5-HT7): 3% | percent of control specific binding, Serotonin 5-HT1A (Serotonin 5-HT1A): 17% | affinity for more than 80 binding sites [4]: little to no affinity

From patent US10912771B1, “Methods for the administration of certain VMAT2 inhibitors” (Neurocrine Biosciences, Inc., priority 2017, dated 2021)
